Source: patent publication US9365489B2, “Nitrooxy alkanoic acids and derivatives thereof in feed for reducing methane emission in ruminants, and/or to improve ruminant performance” (priority 2009, dated 2016)

How the values were obtained:
[1] = Stability of the isolated compound (1H NMR); assay type: physicochemical; conditions: for degradation on storage: after 1 week at room temperature, repurified compound; for degradation on drying (1H NMR): dried at 60° C. under reduced pressure for 18 hours
Procedure: The final compound was dried at 60° C. under reduced pressure for 18 hours. […] The degraded compound was adsorbed on silica gel and purified by flash chromatography [Biotage®, dichloromethane/methanol 100/0→98/2 (15CV), 98/2 (4CV)] affording compound 3 as a light yellow liquid (0.59 g, yield=33%).
The final compound was dried at 60° C. under reduced pressure for 18 hours. […] The degraded compound was adsorbed on silica gel and purified by flash chromatography [Biotage®, dichloromethane/methanol 100/0→98/2 (12CV), 98/2 (6CV)] affording compound 3 as a white solid (0.90 g, yield=70%).

[2] = test system: methanogenesis in rumen liquor; assay: In vitro test for methane production (modified Hohenheim Forage value Test); conditions: 8 h, 39° C., average of two experiments, vs control
Procedure: A modified version of the “Hohenheim Forage value Test (HFT)” was used for testing the effect of specific compounds on the rumen functions mimicked by this in-vitro system.
Feed is given into a syringe with a composition of rumen liquor and an appropriate mixture of buffers. The solution is incubated at 39° C. After 8 hours the quantity (and composition) of methane produced is measured and put into a formula for conversion.
• 6.2 g potassium dihydrogen phosphate (KH2PO4) • 0.6 g magnesium sulfate heptahydrate (MgSO4*7H2O) • 9 ml concentrated phosphoric acid (1 mol/l) • dissolved in distilled water to 1 l (pH about 1.6) Buffer Solution: • 35.0 g sodium hydrogen carbonate (NaHCO3) • 4.0 g ammonium hydrogen carbonate ((NH4)HCO3) • dissolved in distilled water to 1 l Trace Element Solution: • 13.2 g calcium chloride dihydrate (CaCl2*2H2O) • 10.0 g manganese(II) chloride tetrahydrate (MnCl2*4H2O) • 1.0 g cobalt(II) chloride hexahydrate (CoCl2*6H2O) • 8.0 g iron(III) chloride (FeCl3*6H2O) • dissolved in distilled water to 100 ml Sodium Salt Solution: • 100 mg sodium salt • dissolved in distilled water to 100 ml Reduction Solution: • first 3 ml sodium hydroxide (c=1 mol/l), then 427.5 mg sodium sulfide hydrate (Na2S*H2O) are added to 71.25 ml H2O • solution must be prepared shortly before it is added to the medium solution Procedure: Sample Weighing: • The feed stuff is sieved to 1 mm—usually TMR (44% concentrate, 6% hay, 37% maize silage and 13% grass silage)—and weighed exactly into 64 syringes. 4 of these syringes are the substrate controls, which display the gas production without the effect of the tested compounds. 4 other syringes are positive control, in which bromoethane sulfonate has been added to 0.1 mM. When needed, 4 syringes contain a carrier control (if the test compounds need a carrier). The remaining syringes contain the test substances, by groups of 4 syringes. Preparation of the Medium Solution:
The components are mixed in a Woulff bottle in following order: • 711 ml water • 0.18 ml trace element solution • 355.5 ml buffer solution • 355.5 ml mass element solution • The completed solution is warmed up to 39° C. followed by the addition of 1.83 ml sodium salt solution and the addition of reduction solution at 36° C. The rumen liquor is added, when the indicator turns colourless. Extraction of the Rumen Liquor: • 750 ml of rumen liquor are added to approximately 1,400 ml of medium solution under continued agitation and CO2-gassing. Filling the Syringes, Incubation and Determining Gas Volumes and VFA Values: • The diluted rumen fluid (24 ml) is added to the glass syringe. The syringes are then incubated for 8 hours at 39° C. under gentle agitation. After 8 hours, the volume of gas produced is measured, and the percentage of methane in the gas phase is determined by gas chromatography. Results
The food fermented was artificial TMR (44% concentrate, 6% hay, 37% maize silage and 13% grass silage). The compounds produced as described in examples 3 to 20 were added to the fermentation syringes to a concentration of 2 to 0.01% of dry matter (DM).

Structure (SMILES) | degradation on storage [1] | degradation on drying (1H NMR) [1] | effect on methanogenesis (%) ([2]; 0.05% DM) | effect on methanogenesis (%) ([2]; 0.1% DM) | effect on methanogenesis (%) ([2]; 1% DM) | effect on methanogenesis (%) ([2]; 0.01% DM) | effect on methanogenesis (%) ([2]; 2% DM) | effect on methanogenesis (%) ([2]; 0.25% DM) | effect on methanogenesis (%) ([2]; 0.5% DM)
NC(=O)CCCCO[N+](=O)[O-] [Example 20, 5-Nitrooxy-pentanoic acid amide] | No further degradation was observed | Degradation was observed | – | – | – | – | – | – | –
CCOC(=O)C1CCC(O[N+](=O)[O-])CC1 (stereo not shown) | – | – | −2% | −88% | −98% | – | – | – | –
NC(=O)CCCCO[N+](=O)[O-] [drawing 36] | – | – | – | −99% | −98% | −2% | – | – | –
O=C(O)CCCO[N+](=O)[O-] | – | – | – | – | – | – | 2% | – | –
CCOC(=O)CCCCCCCO[N+](=O)[O-] | – | – | −96% | −99% | – | −12% | – | – | –
CCOC(=O)CCO[N+](=O)[O-] [drawing 19] | – | – | −18% | −63% | −100% | – | −100% | −100% | −100%
O=C(O)CCCCO[N+](=O)[O-] | – | – | −100% | −100% | – | −23% | −100% | – | −100%
CCOC(=O)CO[N+](=O)[O-] | – | – | −1% | −1% | – | – | – | – | –
CCOC(=O)CCCCCO[N+](=O)[O-] | – | – | −78% | −100% | – | −3% | – | – | –
CCOC(=O)CCCCCCCCCCO[N+](=O)[O-] | – | – | −48% | −99% | – | −8% | – | – | –
CC(C)(CO[N+](=O)[O-])C(=O)O | – | – | – | – | – | – | −100% | – | −49%
O=C(O)CCO[N+](=O)[O-] | – | – | −98% | −100% | – | −8% | −100% | – | −100%
O=C(O)CCCCCCCO[N+](=O)[O-] | – | – | −76% | −100% | – | −7% | – | – | –
CCOC(=O)CCCO[N+](=O)[O-] | – | – | −55% | −82% | – | −6% | −100% | – | −100%
O=C(O)CCCCCCCCCCO[N+](=O)[O-] | – | – | −52% | −99% | – | −13% | – | – | –
CNC(=O)CCCCO[N+](=O)[O-] [Example 18, 5-Nitrooxy-pentanoic acid methylamide] | No further degradation was observed | Degradation was observed | – | – | – | – | – | – | –
CCOC(=O)C(C)O[N+](=O)[O-] (stereo not shown) | – | – | −2% | – | – | – | −100% | – | −33%
CCOC(=O)CCCCO[N+](=O)[O-] | – | – | −87% | – | – | −28% | −100% | – | −100%
O=[N+]([O-])[O-].[Na+] [Na NO3, reference compound] | – | – | – | – | – | – | −23% | – | −2%
O=C(O)CCCCCO[N+](=O)[O-] | – | – | −99% | −100% | – | −10% | – | – | –
COC(=O)CCO[N+](=O)[O-] | – | – | −64% | – | – | −12% | −100% | – | −100%
CCOC(=O)CC(C)O[N+](=O)[O-] (stereo not shown) | – | – | −17% | – | – | – | −100% | – | −100%
CNC(=O)CCCCO[N+](=O)[O-] [drawing 37] | – | – | – | −100% | −98% | −2% | – | – | –
